Results taken from paper PMC3639963, “A New Class of Small Molecule Inhibitor of BMP Signaling” (PLoS ONE, 2013).

Assays:
Assay in all cases: Nanosyn kinase profiling
Format in all cases: biochemical
Settings in all cases: read-out: Percentage inhibition; for inhibition at 0.1 µM: 0.1 µM inhibitor; for inhibition at 1 µM: 1 µM inhibitor
TRKB = biological target: T1, TRKB (Homo sapiens, UniProt Q16620)
T1 construct: purchased Nanosyn (enzymatic panel); SGC in-house recombinant human kinases (DSF panel); Invitrogen (ALK1-6)
Summary of the method: (§1)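 Percent inhibition of each kinase was measured with the inhibitor at 0.1 µM and at 1 µM, as part of a 200-kinase human selectivity panel.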

FLT1 = biological target: T2, FLT1 (Homo sapiens, UniProt P17948)
T2 construct: purchased Nanosyn (enzymatic panel); SGC in-house recombinant human kinases (DSF panel); Invitrogen (ALK1-6)
Summary of the method: as §1

PKCγ = biological target: T3, PKCγ (Homo sapiens, UniProt P05129)
T3 construct: purchased Nanosyn (enzymatic panel); SGC in-house recombinant human kinases (DSF panel); Invitrogen (ALK1-6)
Summary of the method: as §1

SGK3 = biological target: T4, SGK3 (Homo sapiens, UniProt Q96BR1)
T4 construct: purchased Nanosyn (enzymatic panel); SGC in-house recombinant human kinases (DSF panel); Invitrogen (ALK1-6)
T4 sequence (Q96BR1 1-496): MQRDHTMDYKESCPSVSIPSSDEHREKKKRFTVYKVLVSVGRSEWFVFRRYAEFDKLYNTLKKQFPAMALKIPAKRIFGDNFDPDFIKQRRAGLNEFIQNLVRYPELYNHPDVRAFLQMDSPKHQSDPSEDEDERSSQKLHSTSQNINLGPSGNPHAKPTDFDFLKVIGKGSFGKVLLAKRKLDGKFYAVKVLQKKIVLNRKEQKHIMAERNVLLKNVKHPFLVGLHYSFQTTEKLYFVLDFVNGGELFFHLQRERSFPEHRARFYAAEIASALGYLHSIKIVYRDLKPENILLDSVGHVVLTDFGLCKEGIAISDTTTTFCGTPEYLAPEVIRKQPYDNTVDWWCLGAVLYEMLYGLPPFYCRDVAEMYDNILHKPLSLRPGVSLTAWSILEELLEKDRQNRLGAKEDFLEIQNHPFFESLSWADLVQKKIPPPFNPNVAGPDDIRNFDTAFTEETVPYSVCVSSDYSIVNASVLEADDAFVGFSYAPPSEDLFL
Summary of the method: as §1

MAPKAPK3 = biological target: T5, MAPKAPK3 (Homo sapiens, UniProt Q16644)
T5 construct: purchased Nanosyn (enzymatic panel); SGC in-house recombinant human kinases (DSF panel); Invitrogen (ALK1-6)
Summary of the method: as §1

ARK5 = biological target: T6, ARK5 (Homo sapiens, UniProt O60285)
T6 construct: purchased Nanosyn (enzymatic panel); SGC in-house recombinant human kinases (DSF panel); Invitrogen (ALK1-6)
T6 sequence (O60285 1-661): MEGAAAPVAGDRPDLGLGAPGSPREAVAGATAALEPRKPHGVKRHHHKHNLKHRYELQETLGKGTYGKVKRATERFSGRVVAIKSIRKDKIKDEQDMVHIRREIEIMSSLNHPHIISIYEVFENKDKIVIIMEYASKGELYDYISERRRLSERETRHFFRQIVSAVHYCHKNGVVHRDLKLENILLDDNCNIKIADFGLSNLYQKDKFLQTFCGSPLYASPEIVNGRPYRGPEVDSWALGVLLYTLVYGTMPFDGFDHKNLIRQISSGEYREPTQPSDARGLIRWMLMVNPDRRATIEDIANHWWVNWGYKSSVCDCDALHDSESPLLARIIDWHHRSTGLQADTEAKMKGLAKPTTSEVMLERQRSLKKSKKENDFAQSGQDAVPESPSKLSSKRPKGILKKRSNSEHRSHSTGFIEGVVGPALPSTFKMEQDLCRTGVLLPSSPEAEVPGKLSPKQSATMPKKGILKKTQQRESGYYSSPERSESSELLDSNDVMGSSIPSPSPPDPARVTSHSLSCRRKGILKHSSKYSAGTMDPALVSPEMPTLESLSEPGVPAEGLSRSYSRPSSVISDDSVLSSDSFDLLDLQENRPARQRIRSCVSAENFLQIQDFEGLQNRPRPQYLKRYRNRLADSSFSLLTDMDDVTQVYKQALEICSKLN
Summary of the method: as §1

PAK6 = biological target: T7, PAK6 (Homo sapiens, UniProt Q9NQU5)
T7 construct: purchased Nanosyn (enzymatic panel); SGC in-house recombinant human kinases (DSF panel); Invitrogen (ALK1-6)
Summary of the method: as §1

EPHA2 = biological target: T8, EPHA2 (Homo sapiens, UniProt P29317)
T8 construct: purchased Nanosyn (enzymatic panel); SGC in-house recombinant human kinases (DSF panel); Invitrogen (ALK1-6)
Summary of the method: as §1

CDK3/cycE = biological target: T9, CDK3/cycE (Homo sapiens, UniProt Q00526)
T9 construct: purchased Nanosyn (enzymatic panel); SGC in-house recombinant human kinases (DSF panel); Invitrogen (ALK1-6)
Summary of the method: as §1

CHEK2 = biological target: T10, CHEK2 (Homo sapiens, UniProt O96017)
T10 construct: purchased Nanosyn (enzymatic panel); SGC in-house recombinant human kinases (DSF panel); Invitrogen (ALK1-6)
Summary of the method: as §1

LTK = biological target: T11, LTK (Homo sapiens, UniProt P29376)
T11 construct: purchased Nanosyn (enzymatic panel); SGC in-house recombinant human kinases (DSF panel); Invitrogen (ALK1-6)
Summary of the method: as §1

DYRK1B = biological target: T12, DYRK1B (Homo sapiens, UniProt Q9Y463)
T12 construct: purchased Nanosyn (enzymatic panel); SGC in-house recombinant human kinases (DSF panel); Invitrogen (ALK1-6)
Summary of the method: as §1

T11 sequence (P29376 17-864): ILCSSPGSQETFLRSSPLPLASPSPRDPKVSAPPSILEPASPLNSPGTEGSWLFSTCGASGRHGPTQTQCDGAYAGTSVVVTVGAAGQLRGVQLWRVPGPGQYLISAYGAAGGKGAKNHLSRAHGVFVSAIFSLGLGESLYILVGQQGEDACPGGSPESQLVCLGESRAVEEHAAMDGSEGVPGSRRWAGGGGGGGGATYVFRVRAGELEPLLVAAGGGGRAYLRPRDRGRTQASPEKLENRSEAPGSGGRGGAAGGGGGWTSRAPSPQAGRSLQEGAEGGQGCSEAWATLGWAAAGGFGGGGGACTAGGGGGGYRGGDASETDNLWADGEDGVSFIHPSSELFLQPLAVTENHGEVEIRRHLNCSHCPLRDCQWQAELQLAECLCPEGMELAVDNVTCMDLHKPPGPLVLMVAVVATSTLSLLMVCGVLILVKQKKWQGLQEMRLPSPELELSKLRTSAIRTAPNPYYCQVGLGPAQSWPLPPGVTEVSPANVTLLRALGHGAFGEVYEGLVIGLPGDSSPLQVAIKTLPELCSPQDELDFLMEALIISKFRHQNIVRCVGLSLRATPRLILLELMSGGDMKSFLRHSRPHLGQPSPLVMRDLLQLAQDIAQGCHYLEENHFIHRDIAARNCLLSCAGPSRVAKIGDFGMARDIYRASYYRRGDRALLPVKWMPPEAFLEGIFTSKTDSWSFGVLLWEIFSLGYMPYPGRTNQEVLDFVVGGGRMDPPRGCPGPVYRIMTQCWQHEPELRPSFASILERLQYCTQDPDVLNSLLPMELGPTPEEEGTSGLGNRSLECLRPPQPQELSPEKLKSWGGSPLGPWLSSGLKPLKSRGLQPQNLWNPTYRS
T1 sequence (Q16620 32-822): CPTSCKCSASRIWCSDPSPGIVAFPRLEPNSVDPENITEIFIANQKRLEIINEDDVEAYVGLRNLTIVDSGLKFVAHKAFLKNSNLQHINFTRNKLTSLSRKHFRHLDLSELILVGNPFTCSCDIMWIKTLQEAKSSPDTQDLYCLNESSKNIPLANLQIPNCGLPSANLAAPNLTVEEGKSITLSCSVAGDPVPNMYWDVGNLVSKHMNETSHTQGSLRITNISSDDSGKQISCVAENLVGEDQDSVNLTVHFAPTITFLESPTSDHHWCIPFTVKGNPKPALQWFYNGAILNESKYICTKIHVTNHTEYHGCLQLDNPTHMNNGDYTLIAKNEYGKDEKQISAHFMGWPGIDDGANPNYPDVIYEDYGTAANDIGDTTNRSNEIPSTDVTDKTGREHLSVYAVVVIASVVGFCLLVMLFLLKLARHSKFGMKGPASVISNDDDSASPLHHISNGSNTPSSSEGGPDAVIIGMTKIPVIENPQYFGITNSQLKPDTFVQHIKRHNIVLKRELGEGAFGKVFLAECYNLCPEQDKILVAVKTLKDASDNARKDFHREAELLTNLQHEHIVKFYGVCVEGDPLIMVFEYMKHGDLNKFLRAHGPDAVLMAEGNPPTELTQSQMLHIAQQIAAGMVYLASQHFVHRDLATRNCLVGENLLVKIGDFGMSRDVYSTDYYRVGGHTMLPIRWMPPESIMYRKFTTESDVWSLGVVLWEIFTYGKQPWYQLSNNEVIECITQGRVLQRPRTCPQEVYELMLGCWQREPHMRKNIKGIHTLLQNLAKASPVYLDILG
T10 sequence (O96017 whole entry): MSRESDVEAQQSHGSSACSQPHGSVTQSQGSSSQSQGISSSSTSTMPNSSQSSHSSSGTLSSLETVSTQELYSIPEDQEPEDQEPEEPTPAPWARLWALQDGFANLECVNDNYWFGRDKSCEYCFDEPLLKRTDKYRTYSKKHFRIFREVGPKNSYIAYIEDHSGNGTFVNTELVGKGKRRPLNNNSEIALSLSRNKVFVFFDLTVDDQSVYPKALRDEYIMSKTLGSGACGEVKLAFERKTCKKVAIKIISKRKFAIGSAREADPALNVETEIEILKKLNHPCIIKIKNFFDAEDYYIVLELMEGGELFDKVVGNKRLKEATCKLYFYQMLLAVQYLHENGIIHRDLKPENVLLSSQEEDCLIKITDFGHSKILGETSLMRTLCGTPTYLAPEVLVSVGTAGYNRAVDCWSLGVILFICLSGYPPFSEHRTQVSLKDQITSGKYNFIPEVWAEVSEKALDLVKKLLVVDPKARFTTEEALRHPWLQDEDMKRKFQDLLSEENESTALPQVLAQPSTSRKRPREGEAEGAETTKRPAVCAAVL
T2 sequence (P17948 27-1338): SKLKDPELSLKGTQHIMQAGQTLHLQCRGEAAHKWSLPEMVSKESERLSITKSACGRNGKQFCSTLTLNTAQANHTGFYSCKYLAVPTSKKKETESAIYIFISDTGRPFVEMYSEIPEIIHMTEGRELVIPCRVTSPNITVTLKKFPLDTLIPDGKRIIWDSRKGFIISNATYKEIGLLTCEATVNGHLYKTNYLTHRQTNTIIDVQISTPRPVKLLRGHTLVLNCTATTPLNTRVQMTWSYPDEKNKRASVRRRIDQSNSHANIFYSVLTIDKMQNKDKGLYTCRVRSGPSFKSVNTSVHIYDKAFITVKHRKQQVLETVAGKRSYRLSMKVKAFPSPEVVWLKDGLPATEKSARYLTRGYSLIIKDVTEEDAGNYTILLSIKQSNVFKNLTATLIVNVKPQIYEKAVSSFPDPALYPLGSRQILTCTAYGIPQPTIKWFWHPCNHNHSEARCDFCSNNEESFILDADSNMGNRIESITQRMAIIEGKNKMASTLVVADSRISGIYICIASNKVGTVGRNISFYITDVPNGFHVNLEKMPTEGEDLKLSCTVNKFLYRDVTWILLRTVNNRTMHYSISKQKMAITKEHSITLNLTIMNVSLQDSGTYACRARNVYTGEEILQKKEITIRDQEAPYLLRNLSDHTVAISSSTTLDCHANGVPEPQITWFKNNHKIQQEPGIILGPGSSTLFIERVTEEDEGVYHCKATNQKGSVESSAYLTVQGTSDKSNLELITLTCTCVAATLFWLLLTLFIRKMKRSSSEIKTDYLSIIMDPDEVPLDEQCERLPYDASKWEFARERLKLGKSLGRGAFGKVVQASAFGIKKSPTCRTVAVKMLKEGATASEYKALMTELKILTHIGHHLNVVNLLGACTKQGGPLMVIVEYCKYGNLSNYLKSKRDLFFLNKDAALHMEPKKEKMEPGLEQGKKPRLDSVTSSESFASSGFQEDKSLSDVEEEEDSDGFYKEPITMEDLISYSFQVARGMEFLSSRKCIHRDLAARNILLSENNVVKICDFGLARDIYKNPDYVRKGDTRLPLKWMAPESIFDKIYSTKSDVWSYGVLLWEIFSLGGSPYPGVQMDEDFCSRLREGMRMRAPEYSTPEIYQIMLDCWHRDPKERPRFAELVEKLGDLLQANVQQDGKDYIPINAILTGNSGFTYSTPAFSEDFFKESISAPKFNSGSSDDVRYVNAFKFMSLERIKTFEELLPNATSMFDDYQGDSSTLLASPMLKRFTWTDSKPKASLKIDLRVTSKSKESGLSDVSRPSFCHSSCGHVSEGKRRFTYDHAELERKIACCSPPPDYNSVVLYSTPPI
T5 sequence (Q16644 whole entry): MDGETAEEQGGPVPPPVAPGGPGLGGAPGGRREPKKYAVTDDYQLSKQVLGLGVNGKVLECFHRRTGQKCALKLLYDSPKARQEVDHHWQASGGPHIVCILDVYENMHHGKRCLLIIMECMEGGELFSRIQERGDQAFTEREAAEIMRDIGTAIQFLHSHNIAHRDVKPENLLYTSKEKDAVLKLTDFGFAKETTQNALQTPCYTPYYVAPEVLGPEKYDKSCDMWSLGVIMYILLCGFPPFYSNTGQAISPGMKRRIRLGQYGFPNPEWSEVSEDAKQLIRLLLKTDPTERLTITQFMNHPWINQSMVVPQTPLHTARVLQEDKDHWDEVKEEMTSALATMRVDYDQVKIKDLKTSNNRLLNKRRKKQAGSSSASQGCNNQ

`COc1cc(-c2cc(-c3cccc(O)c3)cnc2N)cc(OC)c1OC` [K02288, 3-[6-amino-5-(3,4,5-trimethoxy-phenyl)-pyridin-3-yl]-phenol] showed an inhibition at 0.1 µM (TRKB) of 1.8%, an inhibition at 1 µM (TRKB) of 3.9% and an inhibition at 0.1 µM (FLT1) of 0%. The inhibition at 1 µM (FLT1) was -2%, the inhibition at 0.1 µM (PKCγ) was -4% and the inhibition at 1 µM (PKCγ) was -1%. It also gave an inhibition at 0.1 µM (SGK3) of -2%, an inhibition at 1 µM (SGK3) of -1% and an inhibition at 0.1 µM (MAPKAPK3) of -1%. The inhibition at 1 µM (MAPKAPK3) was -2%, the inhibition at 0.1 µM (ARK5) was 1.1% and the inhibition at 1 µM (ARK5) was 4.1%. It also gave an inhibition at 0.1 µM (PAK6) of 0.8%, an inhibition at 1 µM (PAK6) of 1.9% and an inhibition at 0.1 µM (EPHA2) of -2%. The inhibition at 1 µM (EPHA2) was 3%, the inhibition at 0.1 µM (CDK3/cycE) was 1.6% and the inhibition at 1 µM (CDK3/cycE) was -91%. The inhibition at 0.1 µM (CHEK2) was -1%, the inhibition at 1 µM (CHEK2) was 2.5% and the inhibition at 0.1 µM (LTK) was 3.6%. The inhibition at 1 µM (LTK) was 31%, the inhibition at 0.1 µM (DYRK1B) was 2.6% and the inhibition at 1 µM (DYRK1B) was 6%.

Work on `c1ccc2c(-c3cnn4cc(-c5ccc(N6CCNCC6)cc5)cnc34)ccnc2c1` [LDN-193189] yielded an inhibition at 0.1 µM (TRKB) of 0.8%, an inhibition at 1 µM (TRKB) of 3% and an inhibition at 0.1 µM (FLT1) of 0%. For the same molecule, the inhibition at 1 µM (FLT1) was 17%, the inhibition at 0.1 µM (PKCγ) was 2.1% and the inhibition at 1 µM (PKCγ) was 4.1%. It also gave an inhibition at 0.1 µM (SGK3) of 1.6%, an inhibition at 1 µM (SGK3) of 2.3% and an inhibition at 0.1 µM (MAPKAPK3) of 1.6%. The inhibition at 1 µM (MAPKAPK3) was 0.5%, the inhibition at 0.1 µM (ARK5) was 16% and the inhibition at 1 µM (ARK5) was 56%. For the same molecule, the inhibition at 0.1 µM (PAK6) was 8.8%, the inhibition at 1 µM (PAK6) was 5.1% and the inhibition at 0.1 µM (EPHA2) was -2%. The inhibition at 1 µM (EPHA2) was -3%, the inhibition at 0.1 µM (CDK3/cycE) was 1.6% and the inhibition at 1 µM (CDK3/cycE) was 7%. It also gave an inhibition at 0.1 µM (CHEK2) of 1.5%, an inhibition at 1 µM (CHEK2) of 2% and an inhibition at 0.1 µM (LTK) of 3.6%. The inhibition at 1 µM (LTK) was 4%, the inhibition at 0.1 µM (DYRK1B) was 7.1% and the inhibition at 1 µM (DYRK1B) was 41%.
